Assay results published in PubChem BioAssay (NCI).
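96-well plates; 48 h exposure; 5 concentrations. Endpoints by linear interpolation between flanking doses. Not reached: highest tested concentration assigned. TGI denotes the concentration required for complete inhibition of growth.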

How the values were obtained:
Test in all cases: NCI tumour cell line growth inhibition, 48 h
[1] = test system: CCRF-CEM leukemia
[2] = test system: LOX IMVI melanoma
[3] = test system: EKVX NSCLC
[4] = test system: ACHN renal
[5] = test system: SR leukemia
[6] = test system: A549 NSCLC
[7] = test system: NCI-H23 lung
[8] = test system: MDA-MB-231 breast
[9] = test system: SK-MEL-5 melanoma
[10] = test system: NCI/ADR-RES ovarian

In the case of C#CCOC(=O)C=[N+]=[N-], the TGI [1] is reported as > 10 µM, the TGI [2] is reported as > 10 µM and the TGI [3] is reported as > 10 µM. For the same compound, the TGI [4] was > 10 µM, the TGI [5] was > 10 µM and the TGI [6] was > 10 µM. The TGI [7] was > 10 µM and the TGI [8] was > 10 µM.
For CCCCCCCCCCCCCOCCOCCOCCCCC(O)CCCCCCCCCC1=C[C@H](C)OC1=O (some centres not stated), the TGI [1] was > 100 µM, the TGI [2] was 42.6 µM and the TGI [4] was > 100 µM. It also gave a TGI [9] of 30.2 µM, a TGI [5] of 34.2 µM and a TGI [6] of 36.9 µM. It also gave a TGI [7] of 60 µM, a TGI [10] of 41.4 µM and a TGI [8] of 50.5 µM.
CCN(CC)c1c(-c2c(OC(C)C)c(=O)c2=O)c(=O)n2ccsc2c1OC(C)=O was tested, and the TGI [1] was > 100 µM, the TGI [2] was > 100 µM and the TGI [3] was > 100 µM. The TGI [4] was > 100 µM, the TGI [9] was > 100 µM and the TGI [5] was > 100 µM. For the same compound, the TGI [7] was > 100 µM, the TGI [10] was > 100 µM and the TGI [8] was > 100 µM.
For CCOC(=O)c1nc2ccccc2nc1Nc1cc(OC)c(OC)c(OC)c1, the TGI [1] was > 100 µM, the TGI [3] was > 100 µM and the TGI [4] was > 100 µM. For the same compound, the TGI [9] was > 100 µM, the TGI [5] was > 100 µM and the TGI [6] was > 100 µM. For the same compound, the TGI [7] was > 100 µM, the TGI [10] was > 100 µM and the TGI [8] was > 100 µM.
With CC(=O)Oc1ccc2c(c1)O/C(=C\c1ccc(N(C)C)cc1)C2=O the TGI [1] was > 100 µM, the TGI [3] was > 100 µM and the TGI [4] was > 100 µM. The TGI [9] was > 100 µM, the TGI [5] was > 100 µM and the TGI [6] was > 100 µM. For the same compound, the TGI [7] was > 100 µM, the TGI [10] was > 100 µM and the TGI [8] was > 100 µM.
In the case of C[C@]12CC[C@H]3[C@@H](CC=C4C[C@@H](N5CCCC5)CC[C@@]43C)[C@@H]1C/C(=C\c1ccc([N+](=O)[O-])cc1)[C@@H]2O, the TGI [1] is reported as 14.1 µM, the TGI [2] is reported as 30.9 µM and the TGI [4] is reported as 29.3 µM. The TGI [9] was 28.3 µM, the TGI [5] was 3.98 µM and the TGI [6] was 32.6 µM. The TGI [7] was 37.4 µM, the TGI [10] was 43.4 µM and the TGI [8] was 30.2 µM.
In the case of CSC(=Nc1ccccc1)c1c(C)[nH]n(-c2ccccc2)c1=O, the TGI [1] is reported as > 100 µM, the TGI [2] is reported as > 100 µM and the TGI [3] is reported as > 100 µM. The TGI [9] was > 100 µM, the TGI [5] was > 100 µM and the TGI [6] was > 100 µM. For the same compound, the TGI [7] was > 100 µM, the TGI [10] was > 100 µM and the TGI [8] was > 100 µM.
With Cc1cc2c3c(c1)S(=O)(=O)c1cc(Cl)ccc1N3CCC2 the TGI [1] was > 100 µM, the TGI [2] was > 100 µM and the TGI [3] was > 100 µM. For the same compound, the TGI [4] was > 100 µM, the TGI [9] was > 100 µM and the TGI [5] was > 100 µM. The TGI [6] was > 100 µM, the TGI [10] was > 100 µM and the TGI [8] was > 100 µM.
With Fc1ccc(/C=C2\COCC3=C2NC(=S)NC3c2ccc(F)cc2)cc1 (configuration not stated) the TGI [1] was 45.7 µM, the TGI [2] was 38.2 µM and the TGI [3] was 42.6 µM. The TGI [4] was > 100 µM, the TGI [9] was 33.5 µM and the TGI [5] was 45 µM. It also gave a TGI [7] of 50.7 µM, a TGI [10] of 40 µM and a TGI [8] of 33.9 µM.
CC(C)(C)c1ccc(O)c(C(O)c2ccccn2)c1 (configuration not stated) was tested, and the TGI [1] was > 100 µM, the TGI [2] was > 100 µM and the TGI [3] was > 100 µM. The TGI [4] was > 100 µM, the TGI [5] was > 100 µM and the TGI [6] was > 100 µM. The TGI [7] was > 100 µM, the TGI [10] was > 100 µM and the TGI [8] was > 100 µM.
For O=C1CC(Nc2ccccc2)c2c(Cl)sc(Cl)c21 (configuration not stated), the TGI [1] was 0.442 µM, the TGI [2] was 2.09 µM and the TGI [3] was 3.4 µM. It also gave a TGI [4] of 2.41 µM, a TGI [9] of 16.8 µM and a TGI [6] of 6 µM. It also gave a TGI [7] of 3.75 µM, a TGI [10] of 6.44 µM and a TGI [8] of 3.42 µM.
COc1cc(OC)c(-n2[nH]c(=O)n(C)c2=O)c(OC)c1 was tested, and the TGI [1] was > 100 µM, the TGI [2] was > 100 µM and the TGI [3] was > 100 µM. The TGI [5] was > 100 µM, the TGI [6] was > 100 µM and the TGI [7] was > 100 µM. For the same compound, the TGI [10] was > 100 µM and the TGI [8] was > 100 µM.
Cc1ccc(N=NC(=Nc2ccc(F)cc2)c2ccc(N(CCC#N)CCC#N)cc2)cc1 was tested, and the TGI [1] was > 100 µM, the TGI [3] was > 100 µM and the TGI [4] was > 100 µM. The TGI [9] was > 100 µM, the TGI [5] was > 100 µM and the TGI [6] was > 100 µM. For the same compound, the TGI [7] was > 100 µM, the TGI [10] was > 100 µM and the TGI [8] was > 100 µM.
In the case of O=C(Nc1ccc(Cl)cc1)c1cc(S(=O)(=O)Nc2nc3ncccc3[nH]2)c(SSc2cc(Cl)c(C(=O)Nc3ccc(Cl)cc3)cc2S(=O)(=O)Nc2nc3ncccc3[nH]2)cc1Cl, the TGI [1] is reported as > 100 µM, the TGI [2] is reported as > 100 µM and the TGI [3] is reported as > 100 µM. The TGI [4] was > 100 µM, the TGI [9] was > 100 µM and the TGI [6] was > 100 µM. For the same compound, the TGI [7] was > 100 µM, the TGI [10] was > 100 µM and the TGI [8] was > 100 µM.
For CN(C)N1C(=C(C#N)C#N)C(c2ccccc2)CC1C#N (configuration not stated), the TGI [1] was > 100 µM, the TGI [2] was > 100 µM and the TGI [3] was > 100 µM. For the same compound, the TGI [4] was > 100 µM, the TGI [9] was > 100 µM and the TGI [6] was > 100 µM. The TGI [7] was > 100 µM, the TGI [10] was > 100 µM and the TGI [8] was > 100 µM.
Cc1ccc(S(=O)(=O)N(CC(O)COc2ccccc2)c2c(F)c(F)c(F)c(F)c2F)cc1 (configuration not stated) showed a TGI [2] of 28.6 µM, a TGI [3] of 35.3 µM and a TGI [4] of 32 µM. For the same compound, the TGI [9] was 25.5 µM, the TGI [5] was 47.7 µM and the TGI [6] was 36.8 µM. The TGI [7] was 29.6 µM, the TGI [10] was 35.1 µM and the TGI [8] was 30.7 µM.
